Paper PMC9369419 (International Journal of Molecular Sciences, 2022)

Columns and labels:
human mGluR5 = molecular target: T1, human mGluR5 (Homo sapiens, UniProt P41594); assay: mGluR5 functional assay (IP1 accumulation, HEK293A cells); type: cell-based; settings: 0.1 mM compound
T1 construct: Flag; expressed in transfected cells; host or cells: HEK293A (transient, Lipofectamine 2000)
Excerpt: (§1) Dulbecco’s modified Eagle medium (DMEM), dialyzed fetal bovine serum (FBS), Opti-MEM, penicillin-streptomycin, Dulbecco’s phosphate-buffered saline (DPBS), Hank’s balanced salt solution (HBSS) and Lipofectamine 2000 were purchased from Thermo Fisher Scientific (Waltham, MA, USA). An IP-One Gq kit was purchased from Cisbio (Codolet, France). Quisqualate and poly-D-lysine (PDL) hydrobromide were purchased from Sigma-Aldrich (St. Louis, MO, USA). Falcon clear, tissue culture-treated 96-well plates were from Corning Inc. (Corning, NY, USA). OptiPlate-384 white, opaque 384-well plates were from PerkinElmer, (Waltham, MA, USA). L-AP4 and LY341495 were purchased from Tocris Bioscience (Bristol, UK). The HEK293A cells were a kind gift from Dr. Asuka Inoue (Tohoku University, Sendai, Japan). Plasmids encoding human mGluR4 and Flag-tagged human mGluR5 were kind gifts from Jesper M. Mathiesen (University of Copenhagen, København, Denmark). […]
(§2) Cell culture and IP1 Assay. […] IP1 accumulation was measured on an EnVision 2104 Multilabel Reader using a 340/60 nm excitation filter and 615/8.5 nm (donor) and 665/7.5 nm (acceptor) emission filters. HTRF ratios were calculated as the ratio of acceptor over donor emission (665 nm/615 nm) and converted to IP1 concentrations with an IP1 standard curve according to the instructions from the kit manufacturer.

GluK1b(Q) = molecular target: T2, GluK1b(Q) (Rattus norvegicus, UniProt P22756); assay: Intracellular Ca2+ imaging assay, HEK293 cells expressing GluK1b(Q); type: cell-based; settings: 10 µM compound, Ca2+ fluorescence, read-out: inhibition of agonist-evoked responses at GluK1
T2 construct: expressed in transfected cells
Excerpt: For the determination of antagonistic activity of compounds at GluK1, GluK3 and GluA2 receptors, stable HEK293 cell lines expressing rat GluK1b(Q), GluK3a, and GluA2(Q)i were created. A polyclonal stable cell line expressing GluK3a was created as described previously. For the creation of polyclonal stable cell lines expressing GluK1and GluA2 receptors, cDNA encoding blasticidin-S deaminase (blas) enzymes were inserted into the pIRES plasmid vector (Clontech, Mountain View, CA, USA) to create the plasmid vector pRES(blas). […] For functional assays, cells were plated into clear-bottomed, black 96-well fluorescence culture plates (Corning, Vordingborg, Denmark), and when >70% confluent, the cells were loaded with 2 μM Fluo 4-AM calcium sensitive dye (Abcam, Cambridge, UK) and used for the imaging of agonist-evoked changes in intracellular Ca^2+ using a FlexStation I plate reader (Molecular Devices, San Jose, CA, USA). […] Changes in dye fluorescence in response to the addition of an agonist solution were then measured at 538 nm using excitation at 485 nm and emission cut-off at 515 nm. Baseline fluorescence was measured for 16 s before the addition of 50 µL agonist solution to each well of the assay plate, and fluorescence was measured for 120 to 160 s after addition of the agonists. […] Responses were determined in at least triplicate at each compound concentration.

human mGluR4 = molecular target: T3, human mGluR4 (Homo sapiens, UniProt Q14833); assay: mGluR4 functional assay (IP1 accumulation, HEK293A cells); type: cell-based; settings: 0.1 mM compound
T3 construct: expressed in transfected cells; host or cells: HEK293A (transient, Lipofectamine 2000)
Excerpt: as §1, §2

T3 sequence (Q14833 33-912): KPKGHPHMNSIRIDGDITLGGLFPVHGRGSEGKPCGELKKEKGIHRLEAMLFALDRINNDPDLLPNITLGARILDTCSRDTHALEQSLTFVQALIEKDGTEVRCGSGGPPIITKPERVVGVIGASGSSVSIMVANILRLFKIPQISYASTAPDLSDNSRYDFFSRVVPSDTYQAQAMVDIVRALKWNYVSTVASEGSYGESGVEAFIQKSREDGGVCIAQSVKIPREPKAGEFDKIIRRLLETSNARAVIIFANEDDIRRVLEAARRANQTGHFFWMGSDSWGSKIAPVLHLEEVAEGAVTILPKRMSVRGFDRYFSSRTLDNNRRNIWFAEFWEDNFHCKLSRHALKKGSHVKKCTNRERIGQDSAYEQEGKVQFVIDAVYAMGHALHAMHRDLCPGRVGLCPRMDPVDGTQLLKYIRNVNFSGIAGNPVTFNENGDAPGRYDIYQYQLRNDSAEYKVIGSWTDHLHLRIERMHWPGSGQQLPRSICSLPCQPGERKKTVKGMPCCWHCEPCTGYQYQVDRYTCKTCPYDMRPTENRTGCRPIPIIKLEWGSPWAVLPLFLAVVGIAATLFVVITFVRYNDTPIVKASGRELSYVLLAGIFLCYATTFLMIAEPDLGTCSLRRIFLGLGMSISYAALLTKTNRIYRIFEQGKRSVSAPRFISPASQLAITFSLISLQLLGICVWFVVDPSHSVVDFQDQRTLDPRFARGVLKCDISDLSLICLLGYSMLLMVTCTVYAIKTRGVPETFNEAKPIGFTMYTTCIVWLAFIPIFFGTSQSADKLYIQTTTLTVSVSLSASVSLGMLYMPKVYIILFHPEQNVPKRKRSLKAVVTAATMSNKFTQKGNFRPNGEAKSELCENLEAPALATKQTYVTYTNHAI
T2 sequence (P22756 31-920 isoform P22756-4 limits assumed): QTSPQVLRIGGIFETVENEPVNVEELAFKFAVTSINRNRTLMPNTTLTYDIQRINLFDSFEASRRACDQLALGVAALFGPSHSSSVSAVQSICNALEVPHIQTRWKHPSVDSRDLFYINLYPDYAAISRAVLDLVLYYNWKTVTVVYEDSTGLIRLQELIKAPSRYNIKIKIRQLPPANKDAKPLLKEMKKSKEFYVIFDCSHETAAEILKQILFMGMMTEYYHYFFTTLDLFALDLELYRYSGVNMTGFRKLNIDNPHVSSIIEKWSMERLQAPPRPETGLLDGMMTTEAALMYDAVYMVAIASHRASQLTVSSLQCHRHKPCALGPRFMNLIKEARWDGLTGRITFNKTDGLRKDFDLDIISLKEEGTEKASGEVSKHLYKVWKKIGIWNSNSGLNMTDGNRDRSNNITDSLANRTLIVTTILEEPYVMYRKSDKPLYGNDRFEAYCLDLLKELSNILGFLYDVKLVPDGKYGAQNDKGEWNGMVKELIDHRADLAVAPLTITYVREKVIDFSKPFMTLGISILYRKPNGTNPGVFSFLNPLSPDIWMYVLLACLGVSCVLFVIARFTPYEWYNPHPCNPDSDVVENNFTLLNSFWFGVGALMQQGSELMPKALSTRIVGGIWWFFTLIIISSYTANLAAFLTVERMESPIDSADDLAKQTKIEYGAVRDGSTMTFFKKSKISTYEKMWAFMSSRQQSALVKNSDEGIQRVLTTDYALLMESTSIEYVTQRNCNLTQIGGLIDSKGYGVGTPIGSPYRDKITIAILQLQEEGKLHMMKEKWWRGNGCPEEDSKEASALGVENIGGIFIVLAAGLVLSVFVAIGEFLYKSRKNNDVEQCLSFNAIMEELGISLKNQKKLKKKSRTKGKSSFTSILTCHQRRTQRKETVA
T1 sequence (P41594 21-1212): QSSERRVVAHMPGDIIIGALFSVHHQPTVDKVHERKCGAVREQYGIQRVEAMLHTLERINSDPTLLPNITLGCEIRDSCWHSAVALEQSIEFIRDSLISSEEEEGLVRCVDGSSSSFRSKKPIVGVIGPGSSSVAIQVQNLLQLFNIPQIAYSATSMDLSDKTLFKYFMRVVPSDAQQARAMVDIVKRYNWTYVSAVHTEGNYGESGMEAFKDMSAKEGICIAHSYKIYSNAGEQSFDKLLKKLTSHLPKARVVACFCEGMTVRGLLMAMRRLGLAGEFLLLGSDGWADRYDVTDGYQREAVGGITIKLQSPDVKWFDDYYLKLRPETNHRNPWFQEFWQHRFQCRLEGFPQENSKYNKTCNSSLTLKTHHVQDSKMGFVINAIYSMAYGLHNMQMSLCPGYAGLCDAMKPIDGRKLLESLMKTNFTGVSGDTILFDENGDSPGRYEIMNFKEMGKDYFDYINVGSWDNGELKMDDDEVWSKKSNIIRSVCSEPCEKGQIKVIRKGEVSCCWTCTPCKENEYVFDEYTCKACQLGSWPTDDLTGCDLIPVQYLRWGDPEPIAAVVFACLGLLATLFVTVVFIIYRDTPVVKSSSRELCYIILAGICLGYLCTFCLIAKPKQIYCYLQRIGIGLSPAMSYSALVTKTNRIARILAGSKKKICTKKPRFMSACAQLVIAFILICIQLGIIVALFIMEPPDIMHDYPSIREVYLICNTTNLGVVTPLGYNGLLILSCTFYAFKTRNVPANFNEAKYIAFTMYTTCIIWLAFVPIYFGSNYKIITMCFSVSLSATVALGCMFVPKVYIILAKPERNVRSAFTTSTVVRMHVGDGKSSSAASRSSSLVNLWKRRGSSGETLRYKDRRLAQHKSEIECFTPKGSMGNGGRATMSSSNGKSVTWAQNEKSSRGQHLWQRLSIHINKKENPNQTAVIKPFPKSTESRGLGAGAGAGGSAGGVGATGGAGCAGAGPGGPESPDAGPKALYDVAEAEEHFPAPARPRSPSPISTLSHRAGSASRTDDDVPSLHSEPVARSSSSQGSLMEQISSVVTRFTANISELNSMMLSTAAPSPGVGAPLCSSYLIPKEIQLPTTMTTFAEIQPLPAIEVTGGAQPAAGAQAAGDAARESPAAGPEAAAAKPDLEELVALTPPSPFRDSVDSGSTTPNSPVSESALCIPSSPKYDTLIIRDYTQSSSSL

agonist or antagonist activity at mGluR5 (human mGluR5): neither agonistic nor antagonistic
inhibition at 10 µM (GluK1b(Q)): < 5%
melting point: 314 to 315 °C
agonist or antagonist activity at mGluR4 (human mGluR4): neither agonistic nor antagonistic
Structure (SMILES): O=C(Nn1c(=O)c(=O)[nH]c2cc(C#Cc3cnc4cccnn34)ccc21)c1ccccc1 [Compound 28]
